Experimental data published in patent US10426753B2, “Supramolecular combinatorial therapeutics” (INVICTUS ONCOLOGY PVT. LTD., priority 2014, dated 2019).

Experiments:
Type in all cases: cell-based
Conditions in all cases: 48, 72 and 96 hrs, supramolecular taxane conjugate
SKOV-3 = assay: Cell viability assay (MTT), ovarian cancer cell line
Description: (§1) Mammalian cells were grown in specific culture media, supplemented with 10% fetal bovine serum (FBS) and antibiotics in a humidified environment containing 5% CO2 at 37° C.
(§2) The effects of supramolecular taxane conjugates on the viability of cancer cells were measured using MTT assay (^6,7,8). Cells in 100 μl culture-media were plated in 96-well plates (3000-5000 cells/well) and allowed to adhere overnight in a humidified environment containing 5% CO2 at 37° C. Fresh media (100 μL) containing different concentrations of compounds were added to cells and incubated for 48, 72 and 96 hrs. Following incubation, cell viability was determined using the MTT assay. Similar assay was performed on normal human epithelial cells seeded in 100 μl media in 96-well plate (5000-10,000 cells per well), under identical incubation time and dosage of compounds, used for cancer cells to determine the effect of this targeted therapy on normal cells. The cell viability was plotted as dose-response curves using curve fitting.
(§3) The effects of compounds (New taxane 2 and 16) were evaluated in vitro in comparison with standard taxanes in breast cancer (MDA-MB-231), ovarian cancer (SKOV-3), lung cancer (A549), prostate cancer (DU-145), and colorectal cancer (HCT-116) cell lines.

MDA-MB-231 = assay: Cell viability assay (MTT), breast cancer cell line
Description: as §1, §2, §3

A549 = assay: Cell viability assay (MTT), lung cancer cell line
Description: as §1, §2, §3

DU-145 = assay: Cell viability assay (MTT), prostate cancer cell line
Description: as §1, §2, §3

HCT-116 = assay: Cell viability assay (MTT), colorectal cancer cell line
Description: as §1, §2, §3

Measured: efficacy on cell viability versus standard taxanes

CC(=O)O[C@H]1C(=O)[C@@]2(C)[C@H]([C@H](OC(=O)c3ccccc3)[C@]3(O)C[C@H](OC(=O)[C@H](OC(=O)CCC(=O)NCC(=O)O[C@H]4CC[C@@]5(C)C(=CCC6C5CC[C@@]5(C)C6CC[C@@H]5[C@H](C)CCCC(C)C)C4)[C@@H](NC(=O)c4ccccc4)c4ccccc4)C(C)=C1C3(C)C)[C@]1(OC(C)=O)CO[C@@H]1C[C@@H]2O (stereo partly shown) [compound 16]
comparable efficacy to standard taxanes: all assays above

CO[C@H]1C(=O)[C@]2(C)[C@@H](OC)C[C@H]3OC[C@@]3(OC(C)=O)[C@H]2[C@H](OC(=O)c2ccccc2)[C@]2(O)C[C@H](OC(=O)[C@H](OC(=O)CCC(=O)NCC(=O)O[C@H]3CC[C@@]4(C)C(=CCC5C4CC[C@@]4(C)C5CC[C@@H]4[C@H](C)CCCC(C)C)C3)[C@@H](NC(=O)OC(C)(C)C)c3ccccc3)C(C)=C1C2(C)C (stereo partly shown) [compound 2]
comparable efficacy to standard taxanes: all assays above
